According to ChEMBL document CHEMBL1123597, “Synthesis and structure-activity relationships of pyrazolo[4,3-d]pyrimidin-7-ones as adenosine receptor antagonists” (J Med Chem, 1987):

Legend:
[1] = molecular target: T1, Adenosine receptor A1 (Rattus norvegicus) (UniProt P25099); conditions: Brain; Membrane
T1 sequence (whole entry): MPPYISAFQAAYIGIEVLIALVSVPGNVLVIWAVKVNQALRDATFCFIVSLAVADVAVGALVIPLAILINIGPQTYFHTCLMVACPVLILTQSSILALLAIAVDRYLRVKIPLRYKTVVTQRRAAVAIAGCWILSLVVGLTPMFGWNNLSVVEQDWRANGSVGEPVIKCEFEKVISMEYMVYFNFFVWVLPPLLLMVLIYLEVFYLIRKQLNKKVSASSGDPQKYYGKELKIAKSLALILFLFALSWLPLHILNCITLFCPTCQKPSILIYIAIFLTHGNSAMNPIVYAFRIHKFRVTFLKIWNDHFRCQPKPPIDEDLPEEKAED
Description: Binding affinity against adenosine A1 receptor in rat brain membrane preparations using N6-[3H]cyclohexyladenosine as radioligand, PCY = log (100000/IC50).

[2] = molecular target: T2, Adenosine receptor A1 (Rattus norvegicus, UniProt P25099); assay: Binding affinity against adenosine A1 receptor in rat brain membrane preparations using N6-[3H]cyclohexyladenosine as a radioligand; format: cell membranes
T2 sequence (P25099 whole entry): T1 sequence (whole entry)
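Wherever PCY is given: radioligand displacement of N6-[3H]cyclohexyladenosine binding in rat brain membranes, PCY computed as the log of 100000 divided by IC50.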

PCY [1]	IC50 [2]	Compound
4.7	–	Cn1c(=O)c2nc(-c3ccc(N)cc3)[nH]c2n(C)c1=O
–	50 nM	Cn1c(=O)c2[nH]c(-c3cccnc3)nc2n(C)c1=O
1.8	–	COc1cccc(-c2nc(O)c3c(n2)c(C)nn3C)c1
–	0.8 nM	Cn1c(=O)c2[nH]c(-c3ccc(Cl)cc3)nc2n(C)c1=O
–	1500 nM	Cn1c(=O)c2[nH]c(Cc3ccccc3)nc2n(C)c1=O
1.6	2300 nM	Cc1nn(C)c2c(O)nc(-c3ccc(S(=O)(=O)O)cc3)nc12
–	350 nM	COc1ccccc1-c1nc2c([nH]1)c(=O)n(C)c(=O)n2C
1.7	–	COc1ccc(-c2nc(O)c3c(n2)c(C)nn3C)cc1OC
–	0.8 nM	Cc1ccc(-c2nc3c([nH]2)c(=O)n(C)c(=O)n3C)cc1
3.7	–	COc1cccc(-c2nc3c(=O)n(C)c(=O)n(C)c3[nH]2)c1
1.9	–	Cc1nn(C)c2c(O)nc(Cc3ccccc3)nc12
2.1	–	Cc1nn(C)c2c(O)nc(-c3ccc([N+](=O)[O-])cc3)nc12
–	1470 nM	COc1cccc(-c2nc3c(C)nn(C)c3c(=O)[nH]2)c1
5.4	–	Cn1c(=O)c2nc(-c3ccc(Cl)cc3N)[nH]c2n(C)c1=O
–	310 nM	Cc1nn(C)c2c(=O)[nH]c(-c3ccc(Cl)cc3N)nc12
4.3	5.5 nM	Cn1c(=O)c2nc(-c3ccccc3N)[nH]c2n(C)c1=O
2	–	Cc1nn(C)c2c(O)nc(-c3ccccc3)nc12
–	380 nM	Cc1nn(C)c2c(=O)[nH]c(-c3ccc(N)cc3)nc12
–	500 nM	COc1cc(OC)cc(-c2nc3c([nH]2)c(=O)n(C)c(=O)n3C)c1
1.2	7060 nM	COc1cc(OC)cc(-c2nc(O)c3c(n2)c(C)nn3C)c1
4.3	5 nM	Cn1c(=O)c2nc(-c3ccc(Cl)c(Cl)c3)[nH]c2n(C)c1=O
2.4	–	Cc1ccc(-c2nc(O)c3c(n2)c(C)nn3C)cc1
–	1.8 nM	Cn1c(=O)c2[nH]c(-c3ccc(N)cc3)nc2n(C)c1=O
1	–	COc1ccccc1-c1nc(O)c2c(n1)c(C)nn2C
2	–	Cc1nn(C)c2c(O)nc(-c3ccc(Cl)c(Cl)c3)nc12
–	200 nM	COc1ccc(-c2nc3c([nH]2)c(=O)n(C)c(=O)n3C)c(OC)c1
4.5	3 nM	CCn1c(=O)n(C)c(=O)c2[nH]c(-c3ccccc3)nc21

PCY [1]	IC50 [2]	Compound
–	8 nM	Cn1c(=O)c2[nH]c(-c3ccc([N+](=O)[O-])cc3)nc2n(C)c1=O
2.4	–	Cc1nn(C)c2c(O)nc(-c3ccc(N)cc3)nc12
2.5	–	Cc1nn(C)c2c(O)nc(-c3ccc(Cl)cc3N)nc12
1.3	–	COc1ccc(-c2nc(O)c3c(n2)c(C)nn3C)c(OC)c1
–	820 nM	CCn1nc(C)c2nc(Cc3ccccc3)nc(O)c21
–	0.4 nM	Cn1c(=O)c2[nH]c(-c3ccc(Cl)cc3N)nc2n(C)c1=O
1.9	–	Cc1nn(C)c2c(O)nc(-c3cccc([N+](=O)[O-])c3)nc12
–	68 nM	Cc1nn(C)c2c(=O)[nH]c(-c3ccc(S(=O)(=O)NCCN(C)C)cc3)nc12
–	250 nM	CCn1nc(C)c2nc(-c3ccncc3)[nH]c(=O)c21
–	1030 nM	CC(Sc1nc(SC(C)C(N)=O)c2cnn(-c3ccccc3)c2n1)C(N)=O (centres undefined)
1.5	–	Cc1nn(C)c2c(O)nc(-c3cccnc3)nc12
2.6	230 nM	Cc1nn(C)c2c(O)nc(-c3ccccc3N)nc12
3.3	–	Cn1c(=O)c2nc(-c3cccnc3)[nH]c2n(C)c1=O
2.5	–	COc1ccccc1-c1nc2c(=O)n(C)c(=O)n(C)c2[nH]1
0.7	–	Cc1nn(C)c2c(O)ncnc12
2.4	–	Cc1nn(C)c2c(O)nc(-c3ccc(Cl)cc3)nc12
–	10 nM	Cn1c(=O)c2[nH]c(-c3cccc(N)c3)nc2n(C)c1=O
–	20100 nM	Cc1nn(C)c2c(=O)[nH]cnc12
3.6	–	Cn1c(=O)c2nc(-c3ccc(S(=O)(=O)O)cc3)[nH]c2n(C)c1=O
–	400 nM	Cc1ccc(-c2nc3c(C)nn(C)c3c(=O)[nH]2)cc1
–	50 nM	Cn1c(=O)c2nc(-c3cccc([N+](=O)[O-])c3)[nH]c2n(C)c1=O
–	1310 nM	Cc1nn(C)c2c(=O)[nH]c(Cc3ccccc3)nc12
1.8	–	Cc1nn(C)c2c(O)nc(-c3cccc(N)c3)nc12
2.2	–	CCn1nc(C)c2nc(-c3ccccc3)nc(O)c21
2	–	Cc1nn(C)c2c(O)nc(-c3ccncc3)nc12
1.8	–	Cn1c(=O)c2nc(Cc3ccccc3)[nH]c2n(C)c1=O
